Assay results published in US4604239A, “Antibiotics” (Eli Lilly and Company, priority 1985, dated 1986).
Like-named read-outs stand apart in the source and are kept apart here.

Experiments:
Staphylococcus aureus = assay: agar-dilution MIC; format: cell-based; conditions: Staphylococcus aureus S13E; Table 17
Hemophilus influenzae = assay: agar-dilution MIC; format: cell-based; conditions: Table 17
Bacteroides fragilis = assay: agar-dilution MIC; format: cell-based; conditions: Table 14
Description: (§1) The agar-dilution procedure described by the International Collaborative study (ICS) group was used to determine the minimum inhibitory concentrations (MIC's).

[1] = test system: Staphylococcus epidermidis; assay: agar-dilution MIC; format: cell-based; conditions: Table 17
Description: as §1

Streptococcus pneumoniae = assay: agar-dilution MIC; format: cell-based; conditions: Streptococcus pneumoniae Park I; Table 17
Description: as §1

Streptococcus pyogenes = assay: agar-dilution MIC; format: cell-based; conditions: Streptococcus pyogenes C203; Table 17
Description: as §1

[2] = test system: Streptococcus sp. (Group D); assay: agar-dilution MIC; format: cell-based; conditions: Table 17
Description: as §1

[3] = test system: Bacteroides thetaiotaomicron; format: cell-based; conditions: Bacteroides thetaiotaomicron 1438; Table 14
Description: as §1

Propionibacterium acnes = assay: agar-dilution MIC; format: cell-based; conditions: Propionibacterium acnes 79; Table 14
Description: Antibiotic A41030 factors A, B and C have also been tested and found to be active against a genus of anaerobic bacteria identified as Propionibacterium acnes.

Clostridium difficile = format: cell-based
Clostridium perfringens = format: cell-based; conditions: Clostridium perfringens 81; Table 14
Clostridium septicum = assay: agar-dilution MIC; format: cell-based; conditions: Clostridium septicum 1128; Table 14
Eubacterium aerofaciens = assay: agar-dilution MIC; format: cell-based; conditions: Eubacterium aerofaciens 1235; Table 14
[4] = test system: Peptostreptococcus anaerobius; assay: agar-dilution MIC; format: cell-based; conditions: Peptostreptococcus anaerobius 1428; Table 14
[5] = test system: Peptostreptococcus intermedius; assay: agar-dilution MIC; format: cell-based; conditions: Peptostreptococcus intermedius 1264; Table 14
[6] = test system: Bacteroides melaninogenicus; assay: agar-dilution MIC; format: cell-based; conditions: Table 14
Fusobacterium symbiosum = assay: agar-dilution MIC; format: cell-based; conditions: Fusobacterium symbiosum 1470; Table 14
Escherichia coli = assay: agar-dilution MIC; format: cell-based; conditions: Escherichia coli TEM; Table 17
Description: (§2) The results after reading the which follows.

electrometric titration = format: physicochemical; conditions: electrometric titration in 66% dimethylformamide in water
Description: Antibiotic A41030 factor A is a white, crystalline solid.

solubility = format: physicochemical
Bacteroides corrodens = assay: agar-dilution MIC; format: cell-based; conditions: Bacteroides corrodens 1874; Table 14
Bacteroides vulgatis = assay: agar-dilution MIC; format: cell-based; conditions: Bacteroides vulgatis 1211; Table 14
Peptococcus prevoti = assay: agar-dilution MIC; format: cell-based; conditions: Peptococcus prevoti 1281; Table 14
[7] = test system: Peptococcus asaccharolyticus; assay: agar-dilution MIC; format: cell-based; conditions: Peptococcus asaccharolyticus 1302; Table 14
Protocol: The MIC values were determined by the agar-dilution method, and are recorded in Table 15, which follows.

[8] = test system: Fusobacterium necrophorum; assay: agar-dilution MIC; format: cell-based; conditions: Fusobacterium necrophorum 6054A; Table 14
Klebsiella pneumoniae = assay: agar-dilution MIC; format: cell-based; conditions: Klebsiella pneumoniae X26; Table 17
Description: as §2

[9] = Staphylococcus epidermidis EPI1
[10] = Staphylococcus epidermidis EPI2
[11] = Clostridium difficile 78, Table 16
[12] = Clostridium difficile 107B, Table 16
[13] = Clostridium difficile 111F, Table 16
[14] = Clostridium difficile 1153, Table 16
[15] = Clostridium difficile 2634, Table 16
[16] = Clostridium difficile 3424-5B, Table 16
[17] = Clostridium difficile 3816, Table 16
[18] = Clostridium difficile 6890, Table 16
[19] = Clostridium difficile 8484, Table 16
[20] = Clostridium difficile A-194, Table 16
[21] = Clostridium difficile A-195, Table 16
[22] = Clostridium difficile A-196, Table 16
[23] = Clostridium difficile A-279, Table 16
[24] = Clostridium difficile A-281, Table 16
[25] = Clostridium difficile WAL-2112, Table 16
[26] = Clostridium difficile WAL-3657, Table 16
[27] = Clostridium difficile WAL-4268, Table 16
[28] = Bacteroides melaninogenicus 2736

Substance A41030 factor D has an MIC (Staphylococcus aureus) of 0.25 µg/mL, an MIC (Hemophilus influenzae; Haemophilus influenzae 76) of 8 µg/mL and an MIC (Hemophilus influenzae; Haemophilus influenzae C.L.) of 8 µg/mL. It also gave an MIC (Bacteroides fragilis; Bacteroides fragilis 111) of 32 µg/mL, an MIC (Bacteroides fragilis; Bacteroides fragilis 1877) of 32 µg/mL and an MIC (Bacteroides fragilis; Bacteroides fragilis 1936B) of 32 µg/mL. For the same substance, the MIC [1, 9] was 0.25 µg/mL, the MIC [1, 10] was 1 µg/mL and the MIC (Streptococcus pneumoniae) was 0.5 µg/mL. It also gave an MIC (Streptococcus pyogenes) of 0.5 µg/mL, an MIC ([2]; Streptococcus sp. Group D 9960) of 1 µg/mL and an MIC ([2]; Streptococcus sp. Group D X66) of 1 µg/mL. For the same substance, the MIC [3] was 32 µg/mL, the MIC (Propionibacterium acnes) was 0.25 µg/mL and the MIC (Clostridium difficile; [11]) was ≤ 0.25 µg/mL. For the same substance, the MIC (Clostridium difficile; [12]) was ≤ 0.25 µg/mL, the MIC (Clostridium difficile; [13]) was ≤ 0.25 µg/mL and the MIC (Clostridium difficile; [14]) was 1.0 µg/mL. The MIC (Clostridium difficile; [15]) was 0.5 µg/mL, the MIC (Clostridium difficile; [16]) was 0.5 µg/mL and the MIC (Clostridium difficile; [17]) was 0.5 µg/mL. The MIC (Clostridium difficile; [18]) was 0.5 µg/mL, the MIC (Clostridium difficile; [19]) was ≤ 0.25 µg/mL and the MIC (Clostridium difficile; [20]) was ≤ 0.25 µg/mL. The MIC (Clostridium difficile; [21]) was ≤ 0.25 µg/mL, the MIC (Clostridium difficile; [22]) was 0.5 µg/mL and the MIC (Clostridium difficile; [23]) was ≤ 0.25 µg/mL. For the same substance, the MIC (Clostridium difficile; Clostridium difficile A-280, Table 16) was ≤ 0.25 µg/mL, the MIC (Clostridium difficile; [24]) was 0.5 µg/mL and the MIC (Clostridium difficile; [25]) was ≤ 0.25 µg/mL. For the same substance, the MIC (Clostridium difficile; [26]) was ≤ 0.25 µg/mL, the MIC (Clostridium difficile; [27]) was ≤ 0.25 µg/mL and the MIC (Clostridium perfringens) was 0.5 µg/mL. It also gave an MIC (Clostridium septicum) of 0.25 µg/mL, an MIC (Eubacterium aerofaciens) of 0.5 µg/mL and an MIC [4] of 0.5 µg/mL. For the same substance, the MIC [5] was 1.0 µg/mL, the MIC ([6]; Bacteroides melaninogenicus 1856/28) was > 64 µg/mL and the MIC [6, 28] was 0.5 µg/mL. The MIC (Fusobacterium symbiosum) was 0.5 µg/mL, the MIC (Escherichia coli) was 64 µg/mL and the “possibly additional pKa's” value (electrometric titration) was > 10. The “solubility (solvents)” value (solubility) was “soluble in the same solvents as factor A”, the MIC (Bacteroides corrodens) was 32 µg/mL and the MIC (Bacteroides vulgatis) was 32 µg/mL. The MIC (Peptococcus prevoti) was 0.25 µg/mL.
A41030 factor G gave an MIC (Hemophilus influenzae; Haemophilus influenzae 76) of 32 µg/mL, an MIC (Hemophilus influenzae; Haemophilus influenzae C.L.) of 32 µg/mL and an MIC (Bacteroides fragilis; Bacteroides fragilis 111) of 32 µg/mL. The MIC (Bacteroides fragilis; Bacteroides fragilis 1877) was 32 µg/mL, the MIC (Bacteroides fragilis; Bacteroides fragilis 1936B) was 64 µg/mL and the MIC [1, 9] was 0.5 µg/mL. The MIC [1, 10] was 0.5 µg/mL, the MIC (Streptococcus pneumoniae) was 2 µg/mL and the MIC (Streptococcus pyogenes) was 2 µg/mL. For the same substance, the MIC ([2]; Streptococcus sp. Group D 9960) was 4 µg/mL, the MIC ([2]; Streptococcus sp. Group D X66) was 4 µg/mL and the MIC [3] was 64 µg/mL. The MIC (Propionibacterium acnes) was 1.0 µg/mL, the MIC (Clostridium difficile; [11]) was 1.0 µg/mL and the MIC (Clostridium difficile; [12]) was 1.0 µg/mL. The MIC (Clostridium difficile; [13]) was 1.0 µg/mL, the MIC (Clostridium difficile; [14]) was 1.0 µg/mL and the MIC (Clostridium difficile; [15]) was 1.0 µg/mL. It also gave an MIC (Clostridium difficile; Clostridium difficile 2994, Table 14) of 2 µg/mL, an MIC (Clostridium difficile; [16]) of 1.0 µg/mL and an MIC (Clostridium difficile; [17]) of 1.0 µg/mL. It also gave an MIC (Clostridium difficile; Clostridium difficile 3950D, Table 16) of 1.0 µg/mL, an MIC (Clostridium difficile; [18]) of 1.0 µg/mL and an MIC (Clostridium difficile; [19]) of 1.0 µg/mL. For the same substance, the MIC (Clostridium difficile; [20]) was 1.0 µg/mL, the MIC (Clostridium difficile; [21]) was 1.0 µg/mL and the MIC (Clostridium difficile; [22]) was 1.0 µg/mL. The MIC (Clostridium difficile; [23]) was 1.0 µg/mL, the MIC (Clostridium difficile; [24]) was 1.0 µg/mL and the MIC (Clostridium difficile; [25]) was 1.0 µg/mL. It also gave an MIC (Clostridium difficile; [26]) of 1.0 µg/mL, an MIC (Clostridium difficile; [27]) of 1.0 µg/mL and an MIC (Clostridium perfringens) of 2 µg/mL. The MIC (Clostridium septicum) was 2 µg/mL, the MIC (Eubacterium aerofaciens) was 2 µg/mL and the MIC [7] was 1.0 µg/mL. The MIC [4] was ≤ 0.5 µg/mL, the MIC [5] was 2 µg/mL and the MIC [6, 28] was 64 µg/mL. The MIC (Fusobacterium symbiosum) was 2 µg/mL, the MIC [8] was 2 µg/mL and the MIC (Klebsiella pneumoniae) was 64 µg/mL. For the same substance, the “possibly additional pKa's” value (electrometric titration) was > 10.5, the “solubility (solvents)” value (solubility) was “soluble in the same solvents as is factor A” and the MIC (Bacteroides corrodens) was 32 µg/mL. The MIC (Bacteroides vulgatis) was 64 µg/mL and the MIC (Peptococcus prevoti) was 2 µg/mL.
